Type in all cases: physicochemical
A short description of series [1]: Chemical stability of BPO in aqueous gel formulation, 40° C., 90 days (HPLC). To be noted: 5% BPO, 90 days at 40° C. (FIG. 21). On the procedure:
Geogard (0.7 g, Lonza) was dissolved in water by heating to 40-50° C. and the solution was allowed to cool to room temperature. Clindamycin phosphate was optionally dissolved in the solution (in formulations comprising antibiotics). Xanthan gum (1 g, Interaxion) was slowly added under medium mixing until the xanthan gum gel was formed. BPO microcapsules were then added to the gel by simple mixing. The composition of the gel formulation is detailed in Table 8 below.
BPO microcapsules were incorporated into the gel formulation (gel base comprising no clindamycin) at final BPO concentration of 5% and incubated at 40° C. over 90 days. Stability studies were performed for compositions comprising only encapsulated BPO or encapsulated BPO in combination with 0.75-1% of Clindamycin Phosphate. BPO concentration was determined immediately after incorporation into gel formulation and after 30, 60 and 90 days. Total concentration of BPO was determined by mixing 1 gr of the gel formulation with dichloromethane/methanollacetonitrile solution. BPO concentration in water phase was determined after separation of microcapsules from gel by centrifugation. The water phase was mixed with dichloromethane/methanol/acetonitrile solution in order to extract BPO and its content was determined using HPLC.

Series [2] is described as follows: Congo red oxidation sensitivity / qualitative diffusion test. As to conditions: microcapsules = sample 2 (PMMA-BPO); 4% (w/w) BPO free or encapsulated, BPO/congo red 30:1, 50-55° C. On the procedure:
Azo-dye congo red was used as a model for oxidation-sensitive component, the ratio BPO/congo red=30:1(w/w).
Three comparative systems were utilized: • 1—BPO microcapsules (sample 2) • 2—free BPO • 3—without BPO (blank)
For the preparation of (1) and (2), 9 g (ml) aqueous dispersion containing 4% (w/w) BPO (free or encapsulated) were suspended with 0.1% Tween™ 20 (polysorbate 20) and 9 g liquid vehicle and stirred in a 25 ml beaker with a magnetic stirrer. Following a mixing period of 30 minutes, the temperature of the system was raised to 50-55° C. and 1 ml of a 1% aqueous solution of congo red were added. The blank system (3) was prepared by stirring 9 ml 0.1% Tween™ 20 and 9 g liquid vehicle, and adding 1 ml of a 1% aqueous solution of congo red. After stirring the suspension for 1 minute, pictures of the three systems were taken.

A short description of series [3]: Chemical stability of BPO in gel containing 1% free retinol, 40° C., 30 days (HPLC). As to conditions: encapsulated = sample 21; gel with 1% free retinol, 5% BPO, 30 days storage at 40° C. The procedure: HPLC was used for BPO analysis following storage at 40° C. (encapsulated BPO vs. free BPO in a gel formulation containing 1% free retinol).

This is an account of results in patent US9682031B2, “Microcapsules comprising benzoyl peroxide and topical compositions comprising them” (Tagra Biotechnologies Ltd., priority 2009, dated 2017).

Regarding `O=C(OOC(=O)c1ccccc1)c1ccccc1` [free BPO, benzoyl peroxide], in series [1], the “decrease in the concentration of BPO” value is “negligible decrease”. Also, the “color of congo red solution” value in series [2] is “changed its color from red to yellow”. The “relative content of BPO from the initial concentration” value in series [3] came out at 36%.
